Experimental data reported in BindingDB's records for doi:10.1016/j.ejmech.2019.111863 (University of Malakand, 2020).

Target: Prostaglandin G/H synthase 2 (Homo sapiens) (UniProt P35354)
Experiment: Inhibition of recombinant human COX2 expressed in baculovirus infected Sf21 cells using arachidonic acid as substrate preincubated for 5 mins followed by substrate addition and measured after 5 mins by UV-visible spectrophotometric method

Chain of Prostaglandin G/H synthase 2 (Homo sapiens) (P35354 whole entry, looked up): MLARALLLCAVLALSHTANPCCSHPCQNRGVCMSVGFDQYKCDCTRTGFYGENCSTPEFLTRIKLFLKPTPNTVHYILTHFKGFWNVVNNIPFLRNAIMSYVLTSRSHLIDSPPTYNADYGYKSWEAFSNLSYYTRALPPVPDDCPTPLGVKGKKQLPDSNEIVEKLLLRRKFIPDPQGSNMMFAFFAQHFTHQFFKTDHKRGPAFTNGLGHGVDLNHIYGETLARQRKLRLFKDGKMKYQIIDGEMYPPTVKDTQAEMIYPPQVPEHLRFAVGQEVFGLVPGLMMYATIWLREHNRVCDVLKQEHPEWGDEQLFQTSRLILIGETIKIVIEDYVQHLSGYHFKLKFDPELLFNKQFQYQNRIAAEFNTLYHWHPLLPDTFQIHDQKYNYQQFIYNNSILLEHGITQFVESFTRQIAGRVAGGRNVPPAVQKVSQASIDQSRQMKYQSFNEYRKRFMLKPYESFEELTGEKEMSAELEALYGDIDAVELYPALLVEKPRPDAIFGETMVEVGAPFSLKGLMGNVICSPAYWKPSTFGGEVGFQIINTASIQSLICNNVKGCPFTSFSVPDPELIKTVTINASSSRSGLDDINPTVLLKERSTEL

Row | IC50 [µM] | SMILES
1 | 2.1 | COc1ccc(C(=O)CC2CC(=O)N(c3ccc(S(N)(=O)=O)cc3)C2=O)cc1 (centres undefined)
2 | 8.94 | NS(=O)(=O)c1ccc(N2C(=O)CC(CC(=O)c3ccccn3)C2=O)cc1 (centres undefined)
3 | 113 | O=C1CCCCC1C1CC(=O)N(c2ccc(Br)cc2)C1=O (centres undefined)
4 | 21.9 | CC1CCC(=O)C(C2CC(=O)N(Cc3ccccc3)C2=O)C1 (centres undefined)
5 | 51.4 | O=C1CCCC1C1CC(=O)N(c2ccccc2)C1=O (centres undefined)
6 | 56.5 | CC1CCC(=O)C(C2CC(=O)N(c3ccccc3)C2=O)C1 (centres undefined)
7 | 20 | O=C1CCCCC1C1CC(=O)N(Cc2ccccc2)C1=O (centres undefined)
8 | 56.6 | O=C1CCOCC1C1CC(=O)N(c2ccccc2)C1=O (centres undefined)
9 | 45.1 | O=C1CCCCC1C1CC(=O)N(c2ccccc2)C1=O (centres undefined)
10 | 4.23 | NS(=O)(=O)c1ccc(N2C(=O)CC(CC(=O)c3ccccc3)C2=O)cc1 (centres undefined)
11 | 39.5 | O=C1CCCCCC1C1CC(=O)N(c2ccccc2)C1=O (centres undefined)
12 | 6.29 | NS(=O)(=O)c1ccc(N2C(=O)CC(CC(=O)c3ccc(Cl)cc3)C2=O)cc1 (centres undefined)
13 | 20.7 | NS(=O)(=O)c1ccc(N2C(=O)CC(C3CCCCCC3=O)C2=O)cc1 (centres undefined)
14 | 0.98 | Cc1ccc(C(=O)CC2CC(=O)N(c3ccc(S(N)(=O)=O)cc3)C2=O)cc1 (centres undefined)
